The format of this series is physicochemical. To be noted: relative to tank mix of CLARITY and CONTROLMAX; dicamba 1.2 wt. % a.e., glyphosate 2.4 wt. % a.e.; 35° C., 40% RH, 24 hours.

Method: The dicamba volatility from each composition was measured by the procedure described in “A Method to Determine the Relative Volatility of Auxin Herbicide Formulations” in ASTM publication STP1587 entitled “Pesticide Formulation and Delivery Systems: 35th Volume, Pesticide Formulations, Adjuvants, and Spray Characterization in 2014, published 2016, which is incorporated herein by reference.
Humidomes obtained from Hummert International (Part Nos 14-3850-2 for humidomes and 11-3050-1 for 1020 flat tray) were modified by cutting a 2.2 cm diameter hole on one end approximately 5 cm from the top to allow for insertion of a glass air sampling tube (22 mm OD) containing a polyurethane foam (PUF) filter. The sampling tube was secured with a VITON o-ring on each side of the humidome wall. The air sampling tube external to the humidome was fitted with tubing that was connected to a vacuum manifold immediately prior to sampling.
The flat tray beneath the humidome was filled with 1 liter of sifted dry or wet 50/50 soil (50% Redi-Earth and 50% US 10 Field Soil) to a depth of about 1 cm. […]
The flat tray bottom containing the auxin herbicide formulation on soil was covered with the humidome lid and the lid was secured with clamps. […] The PUF filter was extracted with 20 mL of methanol and the solution was analyzed for the auxin herbicide concentration using LC-MS methods known in the art.

For the molecule `CCCC[N+](CCCC)(CCCC)CCCC.COc1c(Cl)ccc(Cl)c1C(=O)[O-]` [TBA Dicamba, tetrabutylammonium (TBA) dicamba], the “Volatility Reduction” value amounted to 99.5%.

The record behind these values is patent US20190014776A1 (priority 2017, published 2019).
